Source: US11028068B2, “Somatostatin modulators and uses thereof” (Crinetics Pharmaceuticals, Inc., priority 2017, dated 2021)

Biological target: T1, human somatostatin receptor subtype 2 (Homo sapiens, UniProt P30874)
T1 construct: expressed in transfected cells; host or cells: CHO (Chinese hamster ovary) cells, cultured under G-418 selection
Assay: cAMP assay (inhibition of cAMP activities via sst2 receptor)
Type: cell-based
Conditions: CHO cells expressing the human somatostatin receptor subtype 2, forskolin
Excerpt: General overview: All five SSTR subtypes are Gi coupled G-protein coupled receptors (GPCRs) that lead to decreases in intracellular cyclic AMP (cAMP) when activated by an agonist. Therefore, measurement of intracellular cAMP levels can be used to assess whether compounds of the invention are agonists of SSTR subtypes (John Kelly, Troy Stevens, W. Joseph Thompson, and Roland Seifert, Current Protocols in Pharmacology, 2005,2.2.1-2.2). One example of an intracellular cAMP assay is described below.
One day prior to the assay, 40,000 Chinese hamster ovary (CHO) cells expressing the human somatostatin receptor subtype 2 are plated in each well of a 96-well tissue culture plate in DM-MEM growth media (Gibco) with the following additives: 10% fetal bovine serum (Gibco), 100 U/mL penicillin (Gibco), 100 ug/mL streptomycin (Gibco), 10 mM HEPES (Gibco), 1.2 mM sodium hydroxide, 0.5 mg/mL G-418 (Gibco)). The cells are cultured overnight at 37° C., 5% CO2 and 95% humidity. On the day of the assay, the media is aspirated and the cells are washed with 1X Dulbecco's phosphate buffered saline (Gibco). Next, 5 μL of assay buffer (1× Earle's Balanced Salt Solution (Gibco), 5 mM MgCl2, 10 mM HEPES, 0.1% bovine serum albumin, 0.2 mM 3-Isobutyl-1-methylxanthine (IBMX, Biomol Research Labs)) and forskolin is added. Various dilutions of the compounds of the invention are prepared in assay buffer and 5 μL of the dilutions are added to the cultured cells and incubated for 15 minutes at 37° C. (the final concentration of the compounds of the invention are typically 0-10,000 nM). 10 μL of lysis buffer (HRTF cAMP kit, Cisbio) containing cAMP detection and visualization antibodies are added and the assay is allowed incubate for 1-24 hours at room temperature. The intracellular cAMP concentrations are then measured using a commercially available detection kit (for example, the cAMP HTRF kit, Cisbio). The measured intracellular cAMP concentrations are plotted vs. the concentration of the compounds of the invention and the EC50 of the compounds are calculated using standard methods.

T1 sequence (P30874 whole entry): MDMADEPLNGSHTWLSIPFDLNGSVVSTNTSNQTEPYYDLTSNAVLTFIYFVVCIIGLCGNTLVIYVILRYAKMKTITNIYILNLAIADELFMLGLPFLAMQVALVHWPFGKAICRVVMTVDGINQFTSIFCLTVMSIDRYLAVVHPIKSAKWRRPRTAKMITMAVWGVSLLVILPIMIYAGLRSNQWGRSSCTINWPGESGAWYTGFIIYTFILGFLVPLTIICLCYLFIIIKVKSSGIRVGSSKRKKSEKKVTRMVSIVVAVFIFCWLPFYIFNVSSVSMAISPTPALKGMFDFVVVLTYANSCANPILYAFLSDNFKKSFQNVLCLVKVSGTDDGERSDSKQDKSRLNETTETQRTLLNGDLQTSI

Row | EC50 [nM] | SMILES
1 | 100 to 1000 | CN(C[C@@H]1CCCN1)C(=O)c1c(N2CCC(CO)C2)cnc2ccc(-c3cccc(O)c3)nc12 (stereo partly drawn) [Compound 3-17, 3-[3-(hydroxymethyl)pyrrolidin-1-yl]-6-(3-hydroxyphenyl)-N-methyl-N-[(2S)-pyrrolidin-2-ylmethyl]-1,5-naphthyridine-4-carboxamide]
2 | 100 to 1000 | CC#Cc1cnc2ccc(-c3cccc(O)c3)nc2c1C(=O)N(C)C[C@@H]1CCCN1 [Compound 3-18, 6-(3-hydroxyphenyl)-N-methyl-3-(prop-1-yn-1-yl)-N-((2S) -pyrrolidin-2-ylmethyl)-1,5-naphthyridine-4-carboxamide]
3 | 100 to 1000 | CN(C[C@@H]1CCCN1)C(=O)c1c(N2CCO[C@H](c3ccccc3)C2)cnc2ccc(-c3cc(F)cc(C#N)c3)nc12 [Compound 3-42, 6-(3-cyano-5-fluorophenyl)-N-methyl-3-[(2R)-2-phenylmorpholin-4-yl]-N-[(2S) -pyrrolidin-2-ylmethyl]-1,5-naphthyridine-4-carboxamide]
4 | 100 to 1000 | CN(C[C@@H]1CCCN1)C(=O)c1c(N2CCO[C@@H](c3ccccc3)C2)cnc2ccc(-c3cc(F)cc(C#N)c3)nc12 [Compound 3-47, 6-(3-cyano-5-fluorophenyl)-N-methyl-3-[(2S)-2-phenylmorpholin-4-yl]-N-[(2S) -pyrrolidin-2-ylmethyl]-1,5-naphthyridine-4-carboxamide]
5 | < 100 | Cc1cc(F)cc(-c2cnc3ccc(-c4cccnc4)cc3c2C(=O)N(C)C[C@@H]2CCCN2)c1 [Compound 3-48, 3-(3-fluoro-5-methylphenyl)-N-methyl-6-(pyridin-3-yl)-N-[(2S)-pyrrolidin-2-ylmethyl]quinoline-4-carboxamide]
6 | 100 to 1000 | CN(C[C@@H]1CCCN1)C(=O)c1c(N2CC(C)(C)OC(C)(C)C2)cnc2ccc(-c3cc(F)cc(C#N)c3)nc12 [Compound 3-49, 6-(3-cyano-5-fluorophenyl)-N-methyl-N-[(2S)-pyrrolidin-2-ylmethyl]-3-(2,2,6,6-tetramethylmorpholin-4-yl)-1,5-naphthyridine-4-carboxamide]
7 | 100 to 1000 | CN(C[C@@H]1CCCN1)C(=O)c1c(N2CCc3cc(C(F)(F)F)ccc32)cnc2ccc(-c3cc(F)cc(C#N)c3)nc12 [Compound 3-54, 6-(3-cyano-5-fluorophenyl)-N-methyl-N-[(2S)-pyrrolidin-2-ylmethyl]-3-[5-(trifluoromethyl)-2,3-dihydro-1H-indol-1-yl]-1,5-naphthyridine-4-carboxamide]
8 | 100 to 1000 | CN(C[C@@H]1CCCN1)C(=O)c1c(N2Cc3ccc(C(F)(F)F)cc3C2)cnc2ccc(-c3cc(F)cc(C#N)c3)nc12 [Compound 3-55, 6-(3-cyano-5-fluorophenyl)-N-methyl-N-[(2S)-pyrrolidin-2-ylmethyl]-3-[5-(trifluoromethyl)-2,3-dihydro-1H-isoindol-2-yl]-1,5-naphthyridine-4-carboxamide]
9 | 100 to 1000 | CN(C[C@@H]1CCCN1)C(=O)c1c(N2CC3CC3C2)cnc2ccc(-c3cc(F)cc(C#N)c3)nc12 (stereo partly drawn) [Compound 3-69, 3-{3-azabicyclo[3.1.0]hexan-3-yl}-6-(3-cyano-5-fluorophenyl)-N-methyl-N-[(2S) -pyrrolidin-2-ylmethyl]-1,5-naphthyridine-4-carboxamide]
10 | 100 to 1000 | CN(C[C@@H]1CCCN1)C(=O)c1c(N2CC3CCC(C2)O3)cnc2ccc(-c3cc(F)cc(C#N)c3)nc12 [Compound 3-70, 6-(3-cyano-5-fluorophenyl)-N-methyl-3-{8-oxa-3-azabicyclo[3.2.1]octan-3-yl}-N-[(2S) -pyrrolidin-2-ylmethyl]-1,5-naphthyridine-4-carboxamide]
11 | 100 to 1000 | CN(C[C@@H]1CCCN1)C(=O)c1c(N2CCC(F)(F)C2)cnc2ccc(-c3cc(F)cc(C#N)c3)nc12 [Compound 3-76, 6-(3-cyano-5-fluorophenyl)-3-(3,3-difluoropyrrolidin-1-yl)-N-methyl-N-[(2S)-pyrrolidin-2-ylmethyl]-1,5-naphthyridine-4-carboxamide]
